Tests used:
[1] = system: lymphatic drainage from PT-18 tumor-bearing mammary gland; test: Mammo-MR-lymphangiography of PT-18 tumor xenograft-bearing mammary gland; type: in vivo, athymic nu/nu mice; conditions: FIG. 5
Experimental: Tumor xenografts of PT-18, a murine mast cell line, were introduced into the left mammary pad in athymic nu/nu mice. When 10^7 PT-18 cells were injected in the left mammary pad of 10 athymic nu/nu mice, six mice developed tumor masses in the left axillary lymph nodes within three weeks.
(§1) Mice were anesthetized with 1.15 mg sodium pentobarbital (Dainabot, Osaka, Japan), and then injected with 0.15-0.24 μmol Gd/5-8 μL of the PAMAM-G6 contrast agent into normal mammary glands or mammary tissue surrounding a tumor (peritumorally). Dynamic micro-MR images were obtained using a 1.5-Tesla superconductive magnet unit (Signa LX, General Electric Medical System, Milwaukee, Wis.) with a birdcage type coil of 3 cm diameter fixed by a custom made coil holder. [Single and double “breast coils” used for imaging breasts in humans are commercially available, for example, from GE Medical Systems (Milwaukee, Wis.) and are routinely available in outpatient MRI centers] The mice were wrapped with gauze to stabilize their body temperature and were placed at the center of the coils.
In order to evaluate lymphatic drainage from six tumor-bearing mammary glands of three BALB-neuT transgenic mice or the PT-18 tumor-bearing mammary gland of athymic nu/nu mice (n=6), 2D fast-inversion recovery [2D-fastIR; repetition time/echo time 8000/96 msec; inversion time 150 msec; 31.2 kHz, 2 excitations; 16 slices; scan time 2 min 16 seconds] was employed to evaluate the tumor localization before injection of PAMAM-G6 contrast agent. The coronal images were reconstructed with 1.5 mm section thickness without a gap. The FOV was 8×4 cm and the size of matrix was 512×256. The slice data were processed into 3D images using the MIP method with the same window and level (window 3500 and level 2100) (Advantage Windows, GE). Then images were obtained with the 3D-fastSPGR sequence as described above.

[2] = system: lymphatic drainage from tumor-bearing mammary glands; test: Mammo-MR-lymphangiography of tumor-bearing mammary glands, BALB-neuT transgenic breast cancer model; type: in vivo, BALB-neuT transgenic mice; conditions: FIG. 4
Experimental: The breast-tumor bearing mice were thirty one week-old BALB-neuT mice (n=3) transgenic for the rat HER-2/neu (Erb B2) oncogene under the control of the mouse mammary tumor virus promotor (MMTV). […] BALB-neuT mice were used because of their spontaneous development of bilateral breast cancers and lymph node metastases. […] Most metastatic lymph nodes from the mouse mammary pad localize in the neck, lateral thoracic, or axillary region.
Mice were anesthetized with 1.15 mg sodium pentobarbital (Dainabot, Osaka, Japan), and then injected with 0.15-0.24 μmol Gd/5-8 μL of the PAMAM-G6 contrast agent into normal mammary glands or mammary tissue surrounding a tumor (peritumorally). Dynamic micro-MR images were obtained using a 1.5-Tesla superconductive magnet unit (Signa LX, General Electric Medical System, Milwaukee, Wis.) with a birdcage type coil of 3 cm diameter fixed by a custom made coil holder. [Single and double “breast coils” used for imaging breasts in humans are commercially available, for example, from GE Medical Systems (Milwaukee, Wis.) and are routinely available in outpatient MRI centers] The mice were wrapped with gauze to stabilize their body temperature and were placed at the center of the coils. […]

[3] = system: draining lymph nodes and lymphatic vessels; test: 3D dynamic mammo-lymphangiograms after sequential injection of GPDM and PAMAM-G6 into the mammary gland; type: in vivo, athymic nu/nu mice; conditions: 0.15 μmol Gd into mammary gland; GPDM imaged at 12, 24, 36 min, then PAMAM-G6 injected 36 minutes following GPDM
Experimental: Mice were anesthetized with 1.15 mg sodium pentobarbital (Dainabot, Osaka, Japan), and then injected with 0.15-0.24 μmol Gd/5-8 μL of the PAMAM-G6 contrast agent into normal mammary glands or mammary tissue surrounding a tumor (peritumorally). Dynamic micro-MR images were obtained using a 1.5-Tesla superconductive magnet unit (Signa LX, General Electric Medical System, Milwaukee, Wis.) with a birdcage type coil of 3 cm diameter fixed by a custom made coil holder. [Single and double “breast coils” used for imaging breasts in humans are commercially available, for example, from GE Medical Systems (Milwaukee, Wis.) and are routinely available in outpatient MRI centers] The mice were wrapped with gauze to stabilize their body temperature and were placed at the center of the coils. Athymic nu/nu mice (n=4) were anesthetized and injected with 0.15 μmol Gd of GPDM into the mammary gland, and images were taken 12, 24, and 36 min after injection. Following these three images, these mice were subsequently injected with 0.15 μmol Gd of PAMAM-G6 contrast agent in the mammary gland, and images were taken at 12 and 24 min post-injection of the PAMAM-G6 contrast agent (at 48 and 60 min post-injection of GPDM).

[4] = system: Draining Lymph Nodes (LNs) From the Normal Breast Tissue; test: Dynamic micro-MR mammo-lymphangiography of lymphatic drainage from the normal mammary gland; type: in vivo, mice (Balb/c, athymic nu/nu)
Experimental: as §1
In order to evaluate the lymphatic drainage from the normal mammary gland of either Balb/c mice (n=5) or athymic nu/nu mice (n=5), 3D-fast spoiled gradient echo [3D-fastSPGR (efgre3d package; Signa Horizon, GE); repetition time/echo time 19.2/7.2 msec; inversion time 47 msec; 31.2 kHz, flip angle 30°, 4 excitations; 36 slice encoding steps; scan time 4 min 49 seconds] with chemical shift fat-suppression was used 6, 12, 18, 24, 30, 36, 42, and 48 min after injection of the contrast agent. The coronal images were reconstructed with 0.6-mm section thickness every 0.3-mm. The FOV was 8×4 cm and the size of the matrix was 512×256. The slice data were processed into 3D images using the maximum intensity projection (MIP) method with the same window and level (window 3500 and level 2100) (Advantage Windows, General Electric Medical System). After imaging, the mice were sacrificed by carbon dioxide inhalation.

[5] = Distribution and survival properties of the dendrimer conjugates; conditions: in vivo
[6] = 6 min after injection into normal mammary gland
[7] = 12 min after injection into normal mammary gland
[8] = 18 min after injection into normal mammary gland
[9] = 24 min after injection into normal mammary gland
[10] = 30 min after injection into normal mammary gland
[11] = 36 min after injection into normal mammary gland
[12] = 42 min after injection into normal mammary gland
[13] = 48 min after injection into normal mammary gland

For “PAMAM-G6D-(Gd-1B4M)256 dendrimer conjugate”, the “Enhancement of axillary lymph node tissue with metastatic tumor cells” value [1] was “did not shown enhancement”, the “Enhancement of the lymphatic vessel flowing into the lymph node with a metastatic tumor” value [1] was “dilated and showed enhancement” and the “Visualization of flow within the draining lymphatic vessels” value ([1]; peritumoral injection) was “readily visualized”. The “Imaging of enlarged lymph nodes containing tumor metastases and dilated lymphatic vessels” value [2] was “clearly imaged”, the “Visualization of flow within the draining lymphatic vessels” value ([2]; peritumoral injection) was “readily visualized” and the “Visualization of draining lymph nodes and lymphatic vessels (FIG. 3)” value [3] was “clearly visualized”. For the same substance, the “Visualized LNs/Total Examined LNs, Axillary LN” value [4, 6] was 10/10, the “Visualized LNs/Total Examined LNs, Lateral thoracic LN” value [4, 6] was 0/10 and the “Visualized LNs/Total Examined LNs, Superficial cervical LN” value [4, 6] was 1/10. For the same substance, the “Visualized LNs/Total Examined LNs, Axillary LN” value [4, 7] was 10/10, the “Visualized LNs/Total Examined LNs, Lateral thoracic LN” value [4, 7] was 1/10 and the “Visualized LNs/Total Examined LNs, Superficial cervical LN” value [4, 7] was 1/10. For the same substance, the “Visualized LNs/Total Examined LNs, Axillary LN” value [4, 8] was 10/10, the “Visualized LNs/Total Examined LNs, Lateral thoracic LN” value [4, 8] was 2/10 and the “Visualized LNs/Total Examined LNs, Superficial cervical LN” value [4, 8] was 1/10. The “Visualized LNs/Total Examined LNs, Axillary LN” value [4, 9] was 10/10, the “Visualized LNs/Total Examined LNs, Lateral thoracic LN” value [4, 9] was 4/10 and the “Visualized LNs/Total Examined LNs, Superficial cervical LN” value [4, 9] was 2/10. For the same substance, the “Visualized LNs/Total Examined LNs, Axillary LN” value [4, 10] was 10/10, the “Visualized LNs/Total Examined LNs, Lateral thoracic LN” value [4, 10] was 4/10 and the “Visualized LNs/Total Examined LNs, Superficial cervical LN” value [4, 10] was 2/10. The “Visualized LNs/Total Examined LNs, Axillary LN” value [4, 11] was 10/10, the “Visualized LNs/Total Examined LNs, Lateral thoracic LN” value [4, 11] was 5/10 and the “Visualized LNs/Total Examined LNs, Superficial cervical LN” value [4, 11] was 3/10. The “Visualized LNs/Total Examined LNs, Axillary LN” value [4, 12] was 10/10, the “Visualized LNs/Total Examined LNs, Lateral thoracic LN” value [4, 12] was 6/10 and the “Visualized LNs/Total Examined LNs, Superficial cervical LN” value [4, 12] was 3/10. For the same substance, the “Visualized LNs/Total Examined LNs, Axillary LN” value [4, 13] was 10/10, the “Visualized LNs/Total Examined LNs, Lateral thoracic LN” value [4, 13] was 6/10 and the “Visualized LNs/Total Examined LNs, Superficial cervical LN” value [4, 13] was 3/10. For the same substance, the “Mice in which the axillary lymph node and its afferent lymphatic vessels were visualized” value ([4]; initial (6 min) time point) was “all 10 mice” and the “Survival period in the lymph system” value [5] was “intermediate survival period in the lymph system”.
